From US20080254081A1, “Moist Wipe and Method of Making Same” (GEORGIA-PACIFIC CONSUMER PRODUCTS LP, priority 2002, published 2008)

Tested on: test microbes
Assay: Zone of Inhibition Test, antimicrobial efficacy overall
Type: cell-based
Conditions: benzalkonium chloride in imbuement
Description: Each fabric was placed in a commercially prepared imbuement containing benzalkonium chloride as the functional cationic additive (an antimicrobial agent).
All test results are the average of testing three batches of sample moist wipes. […] Therefore, all of these examples killed the test microbes when benzalkonium chloride was at the measured concentration in solution in the lotion (Table V). The difference (Example 10 versus Example 11) is when comparing the area around the circular piece of test wet wipe. As the benzalkonium chloride (from the imbuement) diffuses away from the test disk, the concentration of benzalkonium chloride decreases with increasing distance from the test disk. Each test microbe has a different minimum inhibitory concentration (MIC) for benzalkonium chloride to effectively kill that microbe. Therefore, if the concentration of benzalkonium chloride is above the MIC, it is observed as a visible zone where the growth of that test microbe has been inhibited. For this reason, some test microbes show no additional zone around the disk (code 0 in Table V), some show a partial zone around the disk (code 1), some show a small inhibition zone (code 2), while other test microbes show a larger inhibition zone (code 3). Therefore, comparisons among example wet wipes can only be made while comparing the same test microbe.

benzalkonium chloride
concentration remaining in solution shown to be sufficient for antibacterial efficacy: 0.029%
